Test results published in patent US20160158280A1, “A METHOD FOR ORGAN ARREST, PROTECTION AND PRESERVATION AND REDUCING TISSUE INJURY” (priority 2013, published 2016).
Values joined by “and” are separate entries in the source; they are usually repeats but may differ in a detail not shown here. Identical values can stand only once.

How the values were obtained:
human NK(1) receptor = human NK(1) receptor (Homo sapiens, UniProt P25103); details: cited from earlier work
humans = details: oral and/or intravenous 10, 25, 50, and 100 mg/kg body weight; cited from earlier work
[1] = 400 mg daily tablets; cited from earlier work
[2] = test system: isolated guinea-pig mesenteric artery; assay: Isolated guinea-pig mesenteric artery relaxation (pressure myograph, videomicroscopy); details: for relaxation of isolated intact mesenteric artery: AVP-constricted, 0.001 to 1 mM luminal or abluminal; for abluminal versus luminal relaxation: intact artery, adenosine: at 10 μM and 100 μM
Protocol: Male guinea pigs (250-300 g) were anesthetised and placed in a cradle and the abdomen opened. Second order mesenteric artery branches were isolated and mounted in a pressure myograph (see FIG. 4) under constant pressure of 60 mmHg and perfusion (luminal flow) of 100 uL/min with Krebs-Henseleit buffer (37° C.). Artery diameter was continuously measured using videomicroscopy (see FIG. 4). For the relaxation/vasodilation experiments arteries were equilibrated and then constricted with 10^−8 M arginine vasopressin (AVP). Adenosine, lidocaine or adenosine-lidocaine together were administered 2) luminally and 2) abluminally and concentration curves were obtained. Stock solutions of adenosine and lidocaine alone or adenosine-lidocaine combined were made in deionized water to 20 mM. A range of volumes were pipetted to provide contact concentrations with the vessel lumen or outer wall that ranged from 0.001 to 1 mM. At the end of experiments, arteries were dilated using calcium-free solution to obtain 100% relaxation. A number of arteries were denuded by introducing 5 ml air into the lumen with flow rate 1000 μl/min. The air outflow was then clamped until the intraluminal pressure reached 70 mmHg, flow rate was reduced to 2 μl/min and the vessel remained pressurized for 10 minutes

[3] = cited from earlier work

human NK(1) receptor, sequence (P25103 whole entry): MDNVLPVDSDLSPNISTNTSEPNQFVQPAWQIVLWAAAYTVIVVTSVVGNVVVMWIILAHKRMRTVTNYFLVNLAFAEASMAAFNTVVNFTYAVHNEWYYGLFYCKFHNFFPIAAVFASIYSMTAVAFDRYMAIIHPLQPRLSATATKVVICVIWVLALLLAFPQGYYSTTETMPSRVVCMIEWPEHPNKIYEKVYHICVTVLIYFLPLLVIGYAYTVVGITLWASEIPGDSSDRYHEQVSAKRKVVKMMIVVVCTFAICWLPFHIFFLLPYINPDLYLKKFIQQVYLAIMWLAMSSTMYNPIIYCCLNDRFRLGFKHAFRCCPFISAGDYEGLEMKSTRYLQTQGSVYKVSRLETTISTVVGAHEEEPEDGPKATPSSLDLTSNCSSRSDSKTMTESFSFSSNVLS

SMILES	relaxation of isolated intact mesenteric artery [2]	relaxation of mesenteric artery ([2]; endothelium absent (denuded))	relaxation of mesenteric artery ([2]; endothelium present)	abluminal versus luminal relaxation [2]	other results
Cc1cccc(C)c1NC(=O)C[C@H]1CCN(C(=O)c2cc(C(F)(F)F)cc(C(F)(F)F)c2)[C@@H](Cc2ccccc2)C1.O=C(O)C[C@H](O)C(=O)O (relative stereo) [R116301, (2R-trans)-4-[1-[3,5-bis(trifluoromethyi)benzoyl]-2-(phenylmethyl)-4-piperidinyl]-N-(2,6-dimethylphenyl)-1-acetamide (S)-Hydroxybutanedioate]	–	–	–	–	selectivity toward NK(2) and NK(3) receptors (human NK(1) receptor): over 200 fold; Ki (human NK(1) receptor; human NK(1) receptor): 450 pM
NC(=O)c1ncn([C@@H]2O[C@H](CO)[C@@H](O)[C@H]2O)c1N [Acadesine, 5-amino-4-imidazole carboxamide ribonucleoside]	–	–	–	–	safety in humans (humans): safe in humans
OCCN(CCO)c1nc(N2CCCCC2)c2nc(N(CCO)CCO)nc(N3CCCCC3)c2n1 [Dipyridamole]	–	–	–	–	plasma level [1]: about 0.4 μg/ml and 0.8 μM
Nc1ncnc2c1ncn2[C@@H]1O[C@H](CO)[C@@H](O)[C@H]1O [adenosine]	increased relaxation	relaxed the mesenteric artery in a dose dependent manner	relaxed the mesenteric artery in a dose dependent manner	significantly more relaxation	half life in the blood [3]: about 10 seconds
CCN(CC)CC(=O)Nc1c(C)cccc1C [lidocaine]	failed to produce relaxation	relaxed the artery	did not significantly change mesenteric artery diameter	no significant difference	–
